Among the data in article PMC7897990, “TriTOX: A novel Trichomonas vaginalis assay platform for high-throughput screening of compound libraries” (International Journal for Parasitology: Drugs and Drug …, 2021) are NFF_Activity and inhibition of growth values, retold here.

Each structure is given as a SMILES string. Read-outs that look alike come from different tables or passages of the source.

Series [1] relates to nontumorigenic neonatal foreskin fibroblast (NFF) cell line.
Series [2] concerns Trichomonas vaginalis G3 trophozoites. The series can be described thus: microbe, parasite or virus in culture. To be noted: 48 h.
[3] abbreviates: NFF fibroblast screen at 5 µg/mL, A = active, I = inactive.
Setting [4] is: read-out: T.vaginalis_%inb_Rep1.
The mark [5] stands for this setting: read-out: T.vaginalis_%inb_Rep2.
Where [6] appears, read: NFF fibroblasts, single concentration 5 µg/mL.

Consider `COC[C@H]1OC(=O)c2coc3c2[C@@]1(C)C1=C(C3=O)[C@@H]2CCC(=O)[C@@]2(C)C[C@H]1OC(C)=O` [Wortmannin], for which, in series [1] (setting [3]), the NFF_Activity result is “I (otherwise these were reported as inactive (I))”. Moreover, the inhibition of growth at 1 µg/mL in series [2] (setting [4]) was 7.97%; in series [2] (setting [5]), 13.5%.
Regarding `C[C@@H]1Cc2c(Cl)cc(C(=O)N[C@@H](Cc3ccccc3)C(=O)O)c(O)c2C(=O)O1` [Ochratoxin A], the NFF_Activity entry in series [1] (setting [6]) was “I (otherwise these were reported as inactive (I))”. Moreover, the inhibition of growth at 1 µg/mL in series [2] (setting [4]) came out at 13%; in series [2] (setting [5]), 11.6%.
As to `O=c1[nH]c2ccccc2c(-c2ccccc2)c1O` [Viridicatin], the NFF_Activity entry in series [1] (setting [3]) was “I (otherwise these were reported as inactive (I))”. For the same molecule, the values for the inhibition of growth at 1 µg/mL in series [2] (setting [4]) and in series [2] (setting [5]) were 10.7% and 15.1%, respectively.
For `CC(C)=C[C@H]1C[C@H](C)[C@]2(CC[C@]3(C)C[C@H]4[C@H](C(=O)C[C@@]4(C)O)/C(C=O)=C\C[C@H]32)O1` [Ophiobolin A], the NFF_Activity entry in series [1] (setting [6]) is “A (active (A) compounds having >25% inhibitory activity)”. The results for the inhibition of growth at 1 µg/mL in series [2] (setting [4]) and in series [2] (setting [5]) were 14.2% and 13%, respectively.
Take `C=C(CC[C@]12O[C@H](C(=O)O)[C@@](O)(C(=O)O)[C@](C(=O)O)(O1)[C@H](OC(=O)/C=C/[C@@H](C)C[C@@H](C)CC)[C@H]2O)[C@@H](OC(C)=O)[C@H](C)Cc1ccccc1` [Zaragozic acid A]: in series [1] (setting [3]), the NFF_Activity result was “I (otherwise these were reported as inactive (I))”. The inhibition of growth at 1 µg/mL in series [2] (setting [4]) was determined as 9.75%; in series [2] (setting [5]) it was 7.01%.
As for `CC1(C)CCC[C@]2(C)[C@@H](C=O)C(C=O)=CC[C@@H]12` [Polygodial], the NFF_Activity entry in series [1] (setting [6]) was “A (active (A) compounds having >25% inhibitory activity)”. Further, the inhibition of growth at 1 µg/mL in series [2] (setting [4]) came out at 13.1%; in series [2] (setting [5]), 13.9%.
As for `COC(=O)C1=C2Nc3ccccc3[C@@]23CCN2C[C@]4(C[C@@H]5C[C@]67CCC[C@H]6CCN6CC[C@@]8(c9cccc(OC)c9N(C4)[C@@]58O)[C@@H]67)[C@@H]4OCC[C@]4(C1)[C@H]23` [Vobtusine], in series [1] (setting [3]), the NFF_Activity entry was “I (otherwise these were reported as inactive (I))”. Also, the inhibition of growth at 1 µg/mL is 9.54% in series [2] (setting [4]) and 11.4% in series [2] (setting [5]).
As for `CO/N=C1\C[C@]2(C[C@@H]3C[C@@H](C/C=C(\C)C[C@@H](C)/C=C/C=C4\CO[C@@H]5[C@H](O)C(C)=C[C@@H](C(=O)O3)[C@]45O)O2)O[C@H](/C(C)=C/C(C)C)[C@H]1C` [Moxidectin], the NFF_Activity result in series [1] (setting [6]) is “I (otherwise these were reported as inactive (I))”. Besides, the results for the inhibition of growth at 1 µg/mL in series [2] (setting [4]) and in series [2] (setting [5]) were 9.23% and 6.09%, respectively.
In the same order, the values of `CC(C)(O)[C@H]1O[C@H]2CC[C@@]3(C)[C@@](O)(CC[C@H]4Cc5c([nH]c6ccccc56)[C@@]43C)C2=CC1=O` [Paxilline] are “I (otherwise these were reported as inactive (I))”, 10.1% and 13.3%.
The corresponding values for `CC/C=C\[C@H](O)[C@H](O)C1=C(C)C(=O)[C@]2(O1)C(=O)N[C@@](OC)(C(=O)c1ccccc1)[C@@H]2O` [Pseurotin A] are “I (otherwise these were reported as inactive (I))”, 11.5% and 11.5%.
The corresponding values for `C=C(NC(=O)c1csc(-c2nc3c(cc2O)-c2nc(cs2)C(=O)NC(C(C)O)C(=O)N/C(=C\C)c2nc(cs2)C(=O)NC2CC(O)C(=O)OCc4cccc5[nH]c(c(C)c45)C(=O)SCC(NC(=O)c4csc2n4)c2nc-3cs2)n1)C(N)=O` (stereo not drawn) [Nosiheptide] are “I (otherwise these were reported as inactive (I))”, 2.89% and 6.03%.
`CC(C)[C@@H]1NC(=O)[C@H](C)OC(=O)[C@@H](C(C)C)NC(=O)[C@@H](C(C)C)OC(=O)[C@H](C(C)C)NC(=O)[C@H](C)OC(=O)[C@@H](C(C)C)NC(=O)[C@@H](C(C)C)OC(=O)[C@H](C(C)C)NC(=O)[C@H](C)OC(=O)[C@@H](C(C)C)NC(=O)[C@@H](C(C)C)OC1=O` [Valinomycin]: the NFF_Activity entry in series [1] (setting [3]) is “I (otherwise these were reported as inactive (I))”. In addition, the inhibition of growth at 1 µg/mL in series [2] (setting [4]) is 9.18%; in series [2] (setting [5]), 12.2%.
As for `O=C(O)c1c(-c2ccc[nH]2)[nH]c2ccccc2c1=O` [Penicinoline], the NFF_Activity result in series [1] (setting [6]) was “I (otherwise these were reported as inactive (I))”. Besides, the values for the inhibition of growth at 1 µg/mL in series [2] (setting [4]) and in series [2] (setting [5]) were 13.9% and 11%, respectively.
In the same order, the values of `CCCCCCC(=O)CCCCCC/C=C/C[C@@H](O)[C@H](O)[C@@](N)(CO)C(=O)O` [Myriocin] are “I (otherwise these were reported as inactive (I))”, 10.9% and 15.1%.
The corresponding values for `O=C(c1cc(Cl)c(Cl)[nH]1)c1c(O)cccc1O` [Pyoluteorin] are “I (otherwise these were reported as inactive (I))”, 6.82% and 7.19%.
For the molecule `COc1ccc2c3c4n(c2c1)[C@H](C=C(C)C)OOC(C)(C)C[C@@H]4N1C(=O)[C@@H]2CCCN2C(=O)[C@]1(O)[C@H]3O` [Verruculogen], the NFF_Activity result in series [1] (setting [3]) is “I (otherwise these were reported as inactive (I))”. Further, the inhibition of growth at 1 µg/mL in series [2] (setting [4]) was found to be 10.3%; in series [2] (setting [5]), 10.6%.
With `CC[C@@H]1C=CC=CC[C@H](C)[C@@H](O)[C@@H](C)C(=O)[C@H](C)[C@@H](O)[C@H](C)C(=O)[C@H](C)[C@@H](O)[C@H](C)C=CC(=O)O[C@H]2[C@@H](C)[C@@H](CC1)O[C@@]1(CC[C@@H](C)[C@@H](C[C@H](C)O)O1)[C@@H]2C` [Oligomycin C], in series [1] (setting [6]), the NFF_Activity entry is “I (otherwise these were reported as inactive (I))”. For the same molecule, the inhibition of growth at 1 µg/mL in series [2] (setting [4]) is 11.3%; in series [2] (setting [5]) it was 12.9%.
Turning to `CN(C)c1ncnc2c1ncn2[C@@H]1O[C@H](CO)[C@@H](N)[C@H]1O` [Puromycin aminonucleoside], the NFF_Activity result in series [1] (setting [6]) was “I (otherwise these were reported as inactive (I))”. In addition, the inhibition of growth at 1 µg/mL amounted to 15.7% in series [2] (setting [4]) and 13% in series [2] (setting [5]).
In the same order, the values of `Cc1cc(O)c(C=O)c2c1C(=O)Oc1c(C)c(O)c3c(c1O2)C(O)OC3=O` (stereo not drawn) [Norstictic acid] are “I (otherwise these were reported as inactive (I))”, 13.7% and 12.1%.
In the same order, the values of `C=C1C[C@@]23C=CC(=O)[C@@](C)(CCC(=O)Nc4c(O)ccc(C(=O)O)c4O)[C@@H]2C[C@@H]1CC3` [Platencin] are “I (otherwise these were reported as inactive (I))”, 11.3% and 10.7%.
In the same order, the values of `C/C=C(\C)[C@H](O)[C@H](C)/C=C(C)/C=C/C/C(C)=C/Cc1nc(OC)c(OC)c(O)c1C` [Piericidin A] are “I (otherwise these were reported as inactive (I))”, 11.3% and 4.17%.
Consider `COC(=O)/C(=C1/OC(=O)C(c2ccccc2)=C1O)c1ccccc1` [Vulpinic acid], for which the NFF_Activity result in series [1] (setting [3]) was “I (otherwise these were reported as inactive (I))”. The inhibition of growth at 1 µg/mL stood at 8.02% in series [2] (setting [4]) and 11.4% in series [2] (setting [5]).
Take `C[C@H]1C(=O)O[C@@H]2CCN3CC=C(COC(=O)[C@](C)(O)[C@]1(C)O)[C@H]23` [Monocrotaline]: in series [1] (setting [6]), the NFF_Activity result is “I (otherwise these were reported as inactive (I))”. Besides, the inhibition of growth at 1 µg/mL in series [2] (setting [4]) was determined as 8.98%; in series [2] (setting [5]), 13.2%.
Consider `CC=C1CN(C)C2Cc3c([nH]c4ccccc34)C(c3cc4[nH]c5c(c4cc3OC)CCN3CC4CC(CC)C3C5(C(=O)OC)C4)CC1C2C(=O)OC` (stereo not drawn) [Voacamine], for which the NFF_Activity result in series [1] (setting [3]) is “I (otherwise these were reported as inactive (I))”. Moreover, the inhibition of growth at 1 µg/mL worked out at 9.44% in series [2] (setting [4]) and 11.1% in series [2] (setting [5]).
In the same order, the values of `CC1(C)C=Cc2cc3ccc(=O)oc3cc2O1` [Xanthyletin] are “I (otherwise these were reported as inactive (I))”, 12% and 15.5%.
Consider `CC[C@H]1CC2CN3CCc4c([nH]c5ccc(OC)cc45)[C@](C(=O)OC)(C2)[C@H]13` (stereo in doubt) [Voacangine], for which, in series [1] (setting [3]), the NFF_Activity result was “I (otherwise these were reported as inactive (I))”. The figures for the inhibition of growth at 1 µg/mL in series [2] (setting [4]) and in series [2] (setting [5]) were 9.91% and 13.7%, respectively.
In the same order, the values of `CC[C@H]1OC(=O)C[C@@H](O)[C@H](C)[C@@H](O[C@@H]2O[C@H](C)[C@@H](O)[C@H](N(C)C)[C@H]2O)[C@@H](CCN2C[C@H](C)C[C@H](C)C2)C[C@@H](C)C(=O)/C=C/C(C)=C/[C@@H]1CO[C@@H]1O[C@H](C)[C@@H](O)[C@@H](OC)[C@H]1OC` [Tilmicosin] are “I (otherwise these were reported as inactive (I))”, 2.41% and 4.94%.
Turning to `CC[C@H]1C[C@@H]2CC[C@@H](O2)[C@@H](C)C(=O)O[C@H](C)C[C@H]2CC[C@H](O2)[C@H](C)C(=O)O[C@@H](C)C[C@@H]2CC[C@@H](O2)[C@@H](C)C(=O)O[C@H](C)C[C@H]2CC[C@H](O2)[C@H](C)C(=O)O1` [Monactin], the NFF_Activity result in series [1] (setting [6]) was “I (otherwise these were reported as inactive (I))”. In addition, the figures for the inhibition of growth at 1 µg/mL in series [2] (setting [4]) and in series [2] (setting [5]) were 10% and 10.7%, respectively.
Turning to `C=C[C@]1(C)C[C@@H](OC(=O)CO)[C@]2(C)[C@H](C)CC[C@]3(CCC(=O)[C@H]32)[C@@H](C)[C@@H]1O` [Pleuromutilin], the NFF_Activity entry in series [1] (setting [6]) is “I (otherwise these were reported as inactive (I))”. Besides, the inhibition of growth at 1 µg/mL was found to be 10.1% in series [2] (setting [4]) and 11.7% in series [2] (setting [5]).
